From publication PMC8133782, “Identification of a series of hair-cell MET channel blockers that protect against aminoglycoside-induced ototoxicity” (JCI Insight, 2021)

Experiments:
Assay type in all cases: cell-based
[1] = molecular target: T1, mechano-electrical transducer (MET) channel (pore subunit TMC1) (Mus musculus, UniProt Q8R4P5); experiment: whole-cell patch clamp of MET currents in OHCs, fractional block at […] (approximately […])
T1 construct: native MET channel in early postnatal CD-1 mouse outer hair cells
T1 sequence (Q8R4P5 1-757): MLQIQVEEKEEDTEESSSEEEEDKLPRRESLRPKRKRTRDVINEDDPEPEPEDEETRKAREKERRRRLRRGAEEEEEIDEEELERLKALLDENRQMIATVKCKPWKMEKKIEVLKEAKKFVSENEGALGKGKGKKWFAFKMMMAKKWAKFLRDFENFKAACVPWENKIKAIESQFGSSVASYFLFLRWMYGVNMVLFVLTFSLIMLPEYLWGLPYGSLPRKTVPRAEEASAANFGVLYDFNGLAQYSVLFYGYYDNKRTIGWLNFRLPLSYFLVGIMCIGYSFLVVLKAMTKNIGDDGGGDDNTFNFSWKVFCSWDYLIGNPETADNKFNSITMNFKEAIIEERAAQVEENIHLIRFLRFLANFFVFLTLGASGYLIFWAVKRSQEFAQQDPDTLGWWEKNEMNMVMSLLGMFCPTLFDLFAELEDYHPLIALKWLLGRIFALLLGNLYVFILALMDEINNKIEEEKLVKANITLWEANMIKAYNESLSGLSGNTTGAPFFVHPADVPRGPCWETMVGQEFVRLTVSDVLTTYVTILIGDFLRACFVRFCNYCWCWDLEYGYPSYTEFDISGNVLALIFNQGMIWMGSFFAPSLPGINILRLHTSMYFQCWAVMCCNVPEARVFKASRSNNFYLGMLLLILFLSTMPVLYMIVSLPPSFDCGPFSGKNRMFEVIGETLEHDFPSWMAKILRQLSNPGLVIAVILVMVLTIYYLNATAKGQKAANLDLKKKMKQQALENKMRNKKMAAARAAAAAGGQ

[2] = molecular target: T1, mechano-electrical transducer (MET) channel (pore subunit TMC1); experiment: whole-cell patch clamp of MET currents in OHCs, fractional block at […]
[3] = molecular target: T1, mechano-electrical transducer (MET) channel (pore subunit TMC1); experiment: whole-cell patch clamp of MET currents in OHCs, fractional block at […], partially reversible

C(=C\c1ccccc1)/CN1CCC(c2nc3ccccc3[nH]2)CC1 [UoS-3606] was tested, and the inhibition at 50 µM [1] was about 80%.

O=C(CN1CCC(c2nc3ccccc3[nH]2)CC1)Nc1cccc([N+](=O)[O-])c1 [UoS-3607] was tested, and the inhibition at 50 µM [2] was about 70%.

O=C(Nc1ccc(OC(F)(F)F)cc1)C1CCN(Cc2nc3ccccc3[nH]2)CC1 [UoS-8052] was tested, and the inhibition at 50 µM [3] was about 70%.
